# From patent publication US9650334B2 (AbbVie Deutschland GmbH & Co. KG, priority 2013, dated 2017)
# Target: T1, human GlyT1c transporter (Homo sapiens, UniProt P48067)
# T1 sequence (P48067 1-706): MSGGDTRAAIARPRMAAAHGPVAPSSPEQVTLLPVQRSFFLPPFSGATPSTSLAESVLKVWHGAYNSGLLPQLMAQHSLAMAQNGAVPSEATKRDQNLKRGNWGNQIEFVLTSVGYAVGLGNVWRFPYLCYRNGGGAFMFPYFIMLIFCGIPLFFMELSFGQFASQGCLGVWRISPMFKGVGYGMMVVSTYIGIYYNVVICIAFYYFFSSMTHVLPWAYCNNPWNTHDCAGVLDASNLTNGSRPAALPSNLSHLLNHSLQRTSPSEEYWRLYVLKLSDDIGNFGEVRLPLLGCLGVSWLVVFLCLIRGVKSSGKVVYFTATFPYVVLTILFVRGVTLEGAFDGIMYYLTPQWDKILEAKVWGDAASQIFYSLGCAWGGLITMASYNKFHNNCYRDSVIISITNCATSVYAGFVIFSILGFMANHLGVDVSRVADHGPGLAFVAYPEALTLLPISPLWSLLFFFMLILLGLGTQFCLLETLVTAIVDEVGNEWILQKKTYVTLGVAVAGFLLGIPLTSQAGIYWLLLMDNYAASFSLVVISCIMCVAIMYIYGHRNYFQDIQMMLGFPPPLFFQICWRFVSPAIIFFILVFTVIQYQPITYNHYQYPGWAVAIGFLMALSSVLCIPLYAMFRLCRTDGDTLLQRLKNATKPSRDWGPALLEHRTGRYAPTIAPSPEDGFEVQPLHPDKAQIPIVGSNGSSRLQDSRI
# Assay: Radioligand binding assays using recombinant CHO cell membranes expressing human GlyT1
# Settings: Ki, radioligand binding to human GlyT1c transporter-expressing CHO cell membranes
row,Ki [nM],Compound
1,≤ 1000,"Cn1cnc(S(=O)(=O)N2CC3c4ccccc4CCC3(Oc3cc(C(F)(F)F)ncn3)C2)c1 (centres unmarked) [Example 888, 2-[(1-methyl-1H-imidazol-4-yl)sulfonyl]-3a-{[6-(trifluoromethyl)pyrimidin-4-yl]oxy}-2,3,3a,4,5,9b-hexahydro-1H-benzo[e]isoindole]"
2,≤ 100,"Cn1cnc(S(=O)(=O)N2CC3c4ccccc4CCC3(NCc3ccc(F)cc3)C2)c1 (centres unmarked) [Example 889, N-(4-fluorobenzyl)-2-[(1-methyl-1H-imidazol-4-yl)sulfonyl]-1,2,3,4,5,9b-hexahydro-3aH-benzo[e]isoindol-3a-amine]"
3,≤ 100,"Cn1cc(S(=O)(=O)N2CC3c4ccccc4CC3(Nc3cc(C(F)(F)F)ncn3)C2)nn1 (centres unmarked) [Example 891, 2-[(1-methyl-1H-1,2,3-triazol-4-yl)sulfonyl]-N-[6-(trifluoromethyl)pyrimidin-4-yl]-2,3,3a,8-tetrahydroindeno[1,2-c]pyrrol-8a(1H)-amine]"
4,≤ 100,"CN1CCCCC1C1CN(S(=O)(=O)c2cn(C)cn2)CC1NC1CCc2ccccc21 (centres unmarked) [Example 893, N-(2,3-dihydro-1H-inden-1-yl)-1-[(1-methyl-1H-imidazol-4-yl)sulfonyl]-4-(1-methylpiperidin-2-yl)pyrrolidin-3-amine]"
5,≤ 10,"CN1CCCCC1C1CN(S(=O)(=O)c2cn(C)cn2)CC1Nc1cccc(OCC(F)(F)F)c1 (centres unmarked) [Example 894, 1-[(1-methyl-1H-imidazol-4-yl)sulfonyl]-4-(1-methylpiperidin-2-yl)-N-[3-(2,2,2-trifluoroethoxy)phenyl]pyrrolidin-3-amine]"
6,≤ 10,"Cn1cnc(S(=O)(=O)N2CC(Nc3cccc(OC(F)(F)F)c3)C(c3ccc(F)cn3)C2)c1 (centres unmarked) [Example 895, 4-(5-fluoropyridin-2-yl)-1-[(1-methyl-1H-imidazol-4-yl)sulfonyl]-N-[3-(trifluoromethoxy)phenyl]pyrrolidin-3-amine]"
7,≤ 10,"Cn1cc(S(=O)(=O)N2C[C@H](Nc3cccc(OC(F)(F)F)c3)[C@@H](C3OCCCO3)C2)nn1 [Example 896, (3R,4S)-4-(1,3-dioxan-2-yl)-1-[(1-methyl-1H-1,2,3-triazol-4-yl)sulfonyl]-N-[3-(trifluoromethoxy)phenyl]pyrrolidin-3-amine]"
8,≤ 10,"CN1CCCCC1C1CN(S(=O)(=O)c2cn(C)cn2)CC1Nc1cccc(OC(F)(F)F)c1 (centres unmarked) [Example 898, 1-[(1-methyl-1H-imidazol-4-yl)sulfonyl]-4-(1-methylpiperidin-2-yl)-N-[3-(trifluoromethoxy)phenyl]pyrrolidin-3-amine]"
9,≤ 100,"Cn1cnc(S(=O)(=O)N2C[C@H](Nc3cccc(OCC(F)(F)F)c3)[C@@H](C3OCCCO3)C2)c1 [Example 899, (3R,4S)-4-(1,3-dioxan-2-yl)-1-[(1-methyl-1H-imidazol-4-yl)sulfonyl]-N-[3-(2,2,2-trifluoroethoxy)phenyl]pyrrolidin-3-amine]"
10,≤ 1000,"Cn1cnc(S(=O)(=O)N2C[C@H](Nc3cccc(OC(F)(F)F)c3)[C@@H](C3OCC(C)(C)CO3)C2)c1 [Example 900, (3R,4S)-4-(5,5-dimethyl-1,3-dioxan-2-yl)-1-[(1-methyl-1H-imidazol-4-yl)sulfonyl]-N-[3-(trifluoromethoxy)phenyl]pyrrolidin-3-amine]"
11,≤ 1000,"Cn1cnc(S(=O)(=O)N2C[C@H](Nc3cccc(OC(F)(F)F)c3)[C@@H](C3OCCO3)C2)c1 [Example 902, (3R,4S)-4-(1,3-dioxolan-2-yl)-1-[(1-methyl-1H-imidazol-4-yl)sulfonyl]-N-[3-(trifluoromethoxy)phenyl]pyrrolidin-3-amine]"
12,≤ 10,"Cn1cnc(S(=O)(=O)N2C[C@H](NC3CCc4ccccc43)[C@@H](C3OCCCO3)C2)c1 (stereo partly drawn) [Example 903, (3R,4S)-N-(2,3-dihydro-1H-inden-1-yl)-4-(1,3-dioxan-2-yl)-1-[(1-methyl-1H-imidazol-4-yl)sulfonyl]pyrrolidin-3-amine]"
13,≤ 10,"Cn1cnc(S(=O)(=O)N2C[C@H](NCc3ccc(C(F)(F)F)cc3Cl)[C@@H](C3OCCCO3)C2)c1 [Example 904, (3R,4S)-N-[2-chloro-4-(trifluoromethyl)benzyl]-4-(1,3-dioxan-2-yl)-1-[(1-methyl-1H-imidazol-4-yl)sulfonyl]pyrrolidin-3-amine]"
14,≤ 1000,"Cn1cnc(S(=O)(=O)N2C[C@H](NCc3cccc(OC(F)(F)F)c3)[C@@H](C3OCCCO3)C2)c1 [Example 905, (3R,4S)-4-(1,3-dioxan-2-yl)-1-[(1-methyl-1H-imidazol-4-yl)sulfonyl]-N-[3-(trifluoromethoxy)benzyl]pyrrolidin-3-amine]"
15,≤ 1000,"Cn1cnc(S(=O)(=O)N2C[C@H](NCc3ccc(F)cc3)[C@@H](C3OCCCO3)C2)c1 [Example 906, (3R,4S)-4-(1,3-dioxan-2-yl)-N-(4-fluorobenzyl)-1-[(1-methyl-1H-imidazol-4-yl)sulfonyl]pyrrolidin-3-amine]"
16,≤ 1000,"CCCCCN(C)[C@H]1CN(S(=O)(=O)c2cn(C)cn2)C[C@@H]1C1OCCCO1 [Example 907, (3R,4S)-4-(1,3-dioxan-2-yl)-N-methyl-1-[(1-methyl-1H-imidazol-4-yl)sulfonyl]-N-pentylpyrrolidin-3-amine]"
17,≤ 10000,"CCCCCN(CCCCC)[C@H]1CN(S(=O)(=O)c2cn(C)cn2)C[C@@H]1C1OCCCO1 [Example 908, (3R,4S)-4-(1,3-dioxan-2-yl)-1-[(1-methyl-1H-imidazol-4-yl)sulfonyl]-N,N-dipentylpyrrolidin-3-amine]"
18,≤ 100,"CCCCCCN[C@H]1CN(S(=O)(=O)c2cn(C)cn2)C[C@@H]1C1OCCCO1 [Example 910, (3R,4S)-4-(1,3-dioxan-2-yl)-N-hexyl-1-[(1-methyl-1H-imidazol-4-yl)sulfonyl]pyrrolidin-3-amine]"
19,≤ 10,"Cn1cnc(S(=O)(=O)N2C[C@H](Nc3cc(C(F)(F)F)c(Cl)cn3)[C@@H](C3OCCCO3)C2)c1 [Example 911, 5-chloro-N-{(3R,4S)-4-(1,3-dioxan-2-yl)-1-[(1-methyl-1H-imidazol-4-yl)sulfonyl]pyrrolidin-3-yl}-4-(trifluoromethyl)pyridin-2-amine]"
20,≤ 10,"Cn1cnc(S(=O)(=O)N2C[C@H](Nc3ccc(F)c(C(F)(F)F)c3)[C@@H](C3OCCCO3)C2)c1 [Example 912, (3R,4S)-4-(1,3-dioxan-2-yl)-N-[4-fluoro-3-(trifluoromethyl)phenyl]-1-[(1-methyl-1H-imidazol-4-yl)sulfonyl]pyrrolidin-3-amine]"
21,≤ 10,"Cn1cnc(S(=O)(=O)N2CC(Nc3cccc(OC(F)(F)F)c3)C(N3CCCCC3)C2)c1 (centres unmarked) [Example 913, 1-[(1-methyl-1H-imidazol-4-yl)sulfonyl]-4-(piperidin-1-yl)-N-[3-(trifluoromethoxy)phenyl]pyrrolidin-3-amine]"
22,≤ 10,"Cn1cnc(S(=O)(=O)N2C[C@H](Nc3cccc(Cl)c3)[C@@H](C3OCCCO3)C2)c1 [Example 914, (3R,4S)-N-(3-chlorophenyl)-4-(1,3-dioxan-2-yl)-1-[(1-methyl-1H-imidazol-4-yl)sulfonyl]pyrrolidin-3-amine]"
23,≤ 10,"Cn1cnc(S(=O)(=O)N2C[C@H](Nc3cccc(C(F)(F)F)c3)[C@@H](C3OCCCO3)C2)c1 [Example 915, (3R,4S)-4-(1,3-dioxan-2-yl)-1-[(1-methyl-1H-imidazol-4-yl)sulfonyl]-N-[3-(trifluoromethyl)phenyl]pyrrolidin-3-amine]"
24,≤ 100,"Cn1cnc(S(=O)(=O)N2C[C@H](Nc3ccc(F)c(Cl)c3)[C@@H](C3OCCCO3)C2)c1 [Example 916, (3R,4S)-N-(3-chloro-4-fluorophenyl)-4-(1,3-dioxan-2-yl)-1-[(1-methyl-1H-imidazol-4-yl)sulfonyl]pyrrolidin-3-amine]"
25,≤ 100,"Cc1cccc(N[C@H]2CN(S(=O)(=O)c3cn(C)cn3)C[C@@H]2C2OCCCO2)c1 [Example 917, (3R,4S)-4-(1,3-dioxan-2-yl)-1-[(1-methyl-1H-imidazol-4-yl)sulfonyl]-N-(3-methylphenyl)pyrrolidin-3-amine]"
26,≤ 1000,"Cn1cnc(S(=O)(=O)N2CC(Cc3cccc(C(F)(F)F)c3)C(C3OCCCO3)C2)c1 (centres unmarked) [Example 918, 4-({3-(1,3-dioxan-2-yl)-4-[3-(trifluoromethyl)benzyl]pyrrolidin-1-yl}sulfonyl)-1-methyl-1H-imidazole]"
27,≤ 10000,"Cn1cc(S(=O)(=O)N2CC(Cc3cccc(C(F)(F)F)c3)C(C3OCCCO3)C2)nn1 (centres unmarked) [Example 919, 4-({3-(1,3-dioxan-2-yl)-4-[3-(trifluoromethyl)benzyl]pyrrolidin-1-yl}sulfonyl)-1-methyl-1H-1,2,3-triazole]"
28,≤ 10,"Cn1cnc(S(=O)(=O)N2C[C@H](Nc3cccc(OC(F)(F)F)c3)[C@@H](C3OCC4(CC4)CO3)C2)c1 [Example 920, (3R,4S)-4-(5,7-dioxaspiro[2.5]oct-6-yl)-1-[(1-methyl-1H-imidazol-4-yl)sulfonyl]-N-[3-(trifluoromethoxy)phenyl]pyrrolidin-3-amine]"
29,≤ 100,"C[C@@H]1C[C@@H](C)OC([C@H]2CN(S(=O)(=O)c3cn(C)cn3)C[C@@H]2Nc2cccc(OC(F)(F)F)c2)O1 (stereo partly drawn) [Example 921, (3R,4S)-4-[(4R,6R)-4,6-dimethyl-1,3-dioxan-2-yl]-1-[(1-methyl-1H-imidazol-4-yl)sulfonyl]-N-[3-(trifluoromethoxy)phenyl]pyrrolidin-3-amine]"
